Common to all, as to format: biochemical
One assay has as its target PDE1A (Homo sapiens, UniProt P54750). Briefly: PDE1 inhibition assay (SPA), PDE1A. Particulars: for IC50: concentration required to reach 50% inhibition of the enzyme, 15 nM tritium labelled cAMP, read-out: PDE1A inhibition (nM or %): IC50; for inhibition at 10 µM: 1 h, % inhibition of the enzyme at a concentration of 10 micro molar of the compound, read-out: PDE1A inhibition (nM or %): % inhib. Here is the method:
(§1) PDE1 Inhibition Assay PDE1A, PDE1B and PDE1C assays were performed as follows: the assays were performed in 60 μL samples containing a fixed amount of the PDE1 enzym1 (sufficient to convert 20-25% of the cyclic nucleotide substrate), a buffer (50 mM HEPES pH 7.6; 10 mM MgCl2; 0.02% Tween20), 0.1 mg/ml BSA, 15 nM tritium labelled cAMP and varying amounts of inhibitors. Reactions were initiated by addition of the cyclic nucleotide substrate, and reactions were allowed to proceed for 1 h at room temperature before being terminated through mixing with 20 μL (0.2 mg) yttrium silicate SPA beads (PerkinElmer). The beads were allowed to settle for 1 h in the dark before the plates were counted in a Wallac 1450 Microbeta counter. The measured signals were converted to activity relative to an uninhibited control (100%) and IC50 values were calculated using XIFit (model 205, IDBS).

A further assay concerns the target PDE1B (Homo sapiens, UniProt Q01064). In words: PDE1 inhibition assay (SPA), PDE1B. Particulars: for IC50: concentration required to reach 50% inhibition of the enzyme, 15 nM tritium labelled cAMP, read-out: PDE1B inhibition (nM or %): IC50; for inhibition at 10 µM: 1 h, % inhibition of the enzyme at a concentration of 10 micro molar of the compound, read-out: PDE1B inhibition (nM or %): % inhib. Here is the method: as §1

In a further assay the target is PDE1C (Homo sapiens, UniProt Q14123). Briefly: PDE1 inhibition assay (SPA), PDE1C. Particulars: for IC50: concentration required to reach 50% inhibition of the enzyme, 15 nM tritium labelled cAMP, read-out: PDE1C inhibition (nM or %): IC50; for PDE1C inhibition (nM or %): % inhib: % inhibition of the enzyme at a concentration of 10 micro molar of the compound. The protocol:
as §1

Chain of PDE1B (Q01064 whole entry): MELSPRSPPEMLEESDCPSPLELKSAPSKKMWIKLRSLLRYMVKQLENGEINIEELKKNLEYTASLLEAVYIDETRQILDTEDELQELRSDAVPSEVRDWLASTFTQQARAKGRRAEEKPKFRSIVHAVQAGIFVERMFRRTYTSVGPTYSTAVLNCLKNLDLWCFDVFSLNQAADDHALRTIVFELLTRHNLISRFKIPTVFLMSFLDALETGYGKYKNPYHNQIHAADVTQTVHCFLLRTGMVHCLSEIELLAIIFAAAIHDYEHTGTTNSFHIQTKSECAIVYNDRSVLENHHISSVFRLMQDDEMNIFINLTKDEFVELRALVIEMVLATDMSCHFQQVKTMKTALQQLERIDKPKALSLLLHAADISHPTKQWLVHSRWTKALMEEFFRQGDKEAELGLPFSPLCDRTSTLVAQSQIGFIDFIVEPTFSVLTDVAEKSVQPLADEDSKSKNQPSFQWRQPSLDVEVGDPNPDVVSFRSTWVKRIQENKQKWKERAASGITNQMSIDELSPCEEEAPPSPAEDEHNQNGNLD
Chain of PDE1A (P54750 whole entry): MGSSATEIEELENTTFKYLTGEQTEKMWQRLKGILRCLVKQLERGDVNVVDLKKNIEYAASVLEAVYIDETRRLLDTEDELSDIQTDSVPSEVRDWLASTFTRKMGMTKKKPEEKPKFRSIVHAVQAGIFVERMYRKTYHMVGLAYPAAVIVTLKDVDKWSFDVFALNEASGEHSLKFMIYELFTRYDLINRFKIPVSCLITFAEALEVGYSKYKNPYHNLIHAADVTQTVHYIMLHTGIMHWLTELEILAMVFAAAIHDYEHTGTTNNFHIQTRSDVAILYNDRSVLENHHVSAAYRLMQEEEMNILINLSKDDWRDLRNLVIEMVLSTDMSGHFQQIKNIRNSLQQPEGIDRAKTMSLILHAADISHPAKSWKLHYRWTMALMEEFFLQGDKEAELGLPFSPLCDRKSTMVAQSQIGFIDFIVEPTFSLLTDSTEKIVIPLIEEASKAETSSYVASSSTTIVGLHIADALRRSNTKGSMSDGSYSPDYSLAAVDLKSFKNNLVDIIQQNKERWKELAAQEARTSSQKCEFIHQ
Chain of PDE1C (Q14123 whole entry): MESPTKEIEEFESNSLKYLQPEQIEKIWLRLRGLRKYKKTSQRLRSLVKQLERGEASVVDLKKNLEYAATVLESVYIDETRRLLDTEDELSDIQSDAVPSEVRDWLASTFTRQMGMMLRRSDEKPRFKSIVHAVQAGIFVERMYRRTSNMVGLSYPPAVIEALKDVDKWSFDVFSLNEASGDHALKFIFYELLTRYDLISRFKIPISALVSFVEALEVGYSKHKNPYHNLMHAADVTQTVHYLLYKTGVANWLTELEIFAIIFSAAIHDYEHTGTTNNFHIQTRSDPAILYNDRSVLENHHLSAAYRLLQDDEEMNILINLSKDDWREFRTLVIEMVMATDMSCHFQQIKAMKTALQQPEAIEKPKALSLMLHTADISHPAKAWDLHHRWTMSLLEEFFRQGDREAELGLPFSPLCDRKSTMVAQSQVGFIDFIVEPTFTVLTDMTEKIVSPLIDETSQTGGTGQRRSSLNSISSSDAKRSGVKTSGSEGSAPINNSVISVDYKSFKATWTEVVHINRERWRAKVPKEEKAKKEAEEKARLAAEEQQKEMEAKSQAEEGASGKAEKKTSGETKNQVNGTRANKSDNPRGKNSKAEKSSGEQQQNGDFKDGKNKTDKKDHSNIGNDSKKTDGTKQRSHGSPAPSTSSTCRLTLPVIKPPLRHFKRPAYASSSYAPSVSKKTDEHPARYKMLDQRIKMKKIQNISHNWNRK

Broadly, the IC50 is the concentration needed to halve the response being measured. With `CCCc1nnc2c(=O)n(Cc3ccccc3F)ccn12` [7-(2-Fluorobenzyl)-3-propyl-[1,2,4]triazolo[4,3-a]pyrazin-8(7H)-one], the half-inhibitory concentration (IC50) on PDE1A stood at 860 nM; at PDE1B, 1000 nM; on PDE1C, 130 nM.
The corresponding values for `CCCc1nnc2c(=O)n(Cc3cccc(F)c3)c(C)cn12` [7-(3-fluorobenzyl)-6-methyl-3-propyl-[1,2,4]triazolo[4,3-a]pyrazin-8(7H)-one] are 236 nM, 190 nM and 46 nM.
On to `Cc1ccc(Cc2cn3c(C4CCOCC4)nnc3c(=O)n2CC2CCCCC2)cc1` [7-(cyclohexylmethyl)-6-(4-methylbenzyl)-3-(tetrahydro-2H-pyran-4-yl)-[1,2,4]triazolo[4,3-a]pyrazin-8(7H)-one], for which the 50% inhibitory concentration (IC50) at PDE1A came to 1 nM; on PDE1B it was 2 nM; on PDE1C, 1 nM.
For the molecule `CCCc1nnc2c(=O)n(CC3CC3)ccn12` [7-(Cyclopropylmethyl)-3-propyl-[1,2,4]triazolo[4,3-a]pyrazin-8(7H)-one], the IC50 was found to be 3600 nM at PDE1A, 2000 nM on PDE1B and 1300 nM on PDE1C.
The like results for `Cc1cccc(Cc2cn3c(C4CCOCC4)nnc3c(=O)n2Cc2cccc(F)c2)c1` [7-(3-fluorobenzyl)-6-(3-methylbenzyl)-3-(tetrahydro-2H-pyran-4-yl)-[1,2,4]triazolo[4,3-a]pyrazin-8(7H)-one] were, in that order, 6 nM, 9 nM and 2 nM.
The like results for `CCCc1nnc2c(=O)n(Cc3cccc(F)c3)cc([C@H]3CCOC3)n12` (single isomer, unassigned) were, in that order, 1610 nM, 2300 nM and 260 nM.
The corresponding values for `O=c1c2nnc(C3CCOCC3)n2cc(Br)n1CC1CCCCC1` [6-bromo-7-(cyclohexylmethyl)-3-(tetrahydro-2H-pyran-4-yl)-[1,2,4]triazolo[4,3-a]pyrazin-8(7H)-one] are 12 nM, 17 nM and 3 nM.
Turning to `O=c1c2nnc(C3CCOCC3)n2cc(Cc2cccc(F)c2)n1CC1CCCCC1` [7-(cyclohexylmethyl)-6-(3-fluorobenzyl)-3-(tetrahydro-2H-pyran-4-yl)-[1,2,4]triazolo[4,3-a]pyrazin-8(7H)-one], the values for the IC50 at PDE1A, on PDE1B and at PDE1C were 24 nM, 22 nM and 6 nM, respectively.
Consider `CCCc1nnc2c(=O)n(Cc3ccc(F)cc3)ccn12` [7-(4-Fluorobenzyl)-3-propyl-[1,2,4]triazolo[4,3-a]pyrazin-8(7H)-one], for which the half-maximal inhibitory concentration (IC50) on PDE1A worked out at 970 nM; on PDE1B, 1200 nM; at PDE1C, 360 nM.
With `Cc1ccc(Cc2cn3c(C4CCOCC4)nnc3c(=O)n2CC2CCCC2)cc1` [7-(cyclopentylmethyl)-6-(4-methylbenzyl)-3-(tetrahydro-2H-pyran-4-yl)-[1,2,4]triazolo[4,3-a]pyrazin-8(7H)-one], the values for the IC50 at PDE1A, on PDE1B and at PDE1C were 21 nM, 19 nM and 3 nM, respectively.
The like results for `CCCc1nnc2c(=O)n(Cc3cccc(F)c3)c([C@@H]3CCOC3)cn12` (single isomer, unassigned) were, in that order, 1100 nM, 1100 nM and 270 nM.
The corresponding values for `O=c1c2nnc(C3CCOCC3)n2ccn1Cc1cccc(F)c1` [7-(3-Fluorobenzyl)-3-(tetrahydro-2H-pyran-4-yl)-[1,2,4]triazolo[4,3-a]pyrazin-8(7H)-one] are 730 nM, 680 nM and 140 nM.
The corresponding values for `CCCc1nnc2c(=O)n(CC3CCCC(C)C3)ccn12` (mixture of isomers) [7-((3-methylcyclohexyl)methyl)-3-propyl-[1,2,4]triazolo[4,3-a]pyrazin-8(7H)-one] are 320 nM, 230 nM and 83 nM.
By inhibition is commonly meant the relative decrease from the control value, in per cent. Regarding `CCCc1nnc2c(=O)n(CC3CCOCC3)ccn12` [3-Propyl-7-((tetrahydro-2H-pyran-4-yl)methyl)-[1,2,4]triazolo[4,3-a]pyrazin-8(7H)-one], the inhibition at 10 µM was 42% on PDE1A and 47% at PDE1B. Besides, the IC50 on PDE1C came to 1600 nM.
For `CCc1nnc2c(=O)n(Cc3ccc(Cl)cc3)ccn12` [7-(4-Chlorobenzyl)-3-ethyl-[1,2,4]triazolo[4,3-a]pyrazin-8(7H)-one], the IC50 came to 1000 nM at PDE1A, 800 nM at PDE1B and 2400 nM at PDE1C.
With `CCCc1nnc2c(=O)n(Cc3ccccc3C(F)(F)F)ccn12` [3-Propyl-7-(2-(trifluoromethyl)benzyl)-[1,2,4]triazolo[4,3-a]pyrazin-8(7H)-one], the figures for the inhibition at 10 µM at PDE1A and at PDE1B were 44% and 46%, respectively. The “PDE1C inhibition (nM or %): % inhib” value at PDE1C was 41%.
For `CCCc1nnc2c(=O)n(CC3CCC(F)CC3)ccn12` (mixture of isomers) [7-((4-fluorocyclohexyl)methyl)-3-propyl-[1,2,4]triazolo[4,3-a]pyrazin-8(7H)-one], the results for the IC50 on PDE1A, on PDE1B and on PDE1C were 660 nM, 560 nM and 610 nM, respectively.
For `O=c1c2nnc(C3CCOCC3)n2cc(Cc2ccc(F)cc2)n1CC1CCCC1` [7-(cyclopentylmethyl)-6-(4-fluorobenzyl)-3-(tetrahydro-2H-pyran-4-yl)-[1,2,4]triazolo[4,3-a]pyrazin-8(7H)-one], the IC50 was 142 nM at PDE1A, 140 nM at PDE1B and 12 nM at PDE1C.
In the case of `Cc1ccc(Cc2cn3c(C4CCOCC4)nnc3c(=O)n2CC2CCCCCC2)cc1` [7-(cycloheptylmethyl)-6-(4-methylbenzyl)-3-(tetrahydro-2H-pyran-4-yl)-[1,2,4]triazolo[4,3-a]pyrazin-8(7H)-one], the concentration for half-maximal inhibition (IC50) on PDE1A turned out to be 0.86 nM; at PDE1B, 1 nM; at PDE1C it was 0.37 nM.
For the molecule `Cn1c(Cc2ccccc2)cn2c(C3CCOCC3)nnc2c1=O` [6-benzyl-7-methyl-3-(tetrahydro-2H-pyran-4-yl)-[1,2,4]triazolo[4,3-a]pyrazin-8(7H)-one], the IC50 was found to be 2000 nM at PDE1A, 1600 nM on PDE1B and 2800 nM on PDE1C.
The corresponding values for `CCCc1nnc2c(=O)n(Cc3ccc(Cl)cc3)ccn12` [7-(4-Chlorobenzyl)-3-propyl-[1,2,4]triazolo[4,3-a]pyrazin-8(7H)-one] are 620 nM, 83 nM and 170 nM.
The like results for `Cc1ccccc1Cc1cn2c(C3CCOCC3)nnc2c(=O)n1Cc1cccc(F)c1` [7-(3-fluorobenzyl)-6-(2-methylbenzyl)-3-(tetrahydro-2H-pyran-4-yl)-[1,2,4]triazolo[4,3-a]pyrazin-8(7H)-one] were, in that order, 91 nM, 82 nM and 17 nM.
In the case of `CCCc1nnc2c(=O)n(CC3COC3)ccn12` [7-(Oxetan-3-ylmethyl)-3-propyl-[1,2,4]triazolo[4,3-a]pyrazin-8(7H)-one], the inhibition at 10 µM is 37% at PDE1A and 46% on PDE1B. Also, the “PDE1C inhibition (nM or %): % inhib” value at PDE1C is on record as 57%.
Consider `O=c1c2nnc(C3CCOCC3)n2ccn1CC1CCCC1` [7-(Cyclopentylmethyl)-3-(tetrahydro-2H-pyran-4-yl)-[1,2,4]triazolo[4,3-a]pyrazin-8(7H)-one], for which the results for the IC50 on PDE1A, on PDE1B and on PDE1C were 1100 nM, 990 nM and 110 nM, respectively.
On to `CCCc1nnc2c(=O)n(CC)ccn12` [7-Ethyl-3-propyl-[1,2,4]triazolo[4,3-a]pyrazin-8(7H)-one], for which the inhibition at 10 µM was determined as 49% at PDE1A and 71% at PDE1B. Also, the “PDE1C inhibition (nM or %): % inhib” value at PDE1C worked out at 52%.
Consider `O=c1c2nnc(C3CCOCC3)n2cc(Cc2ccc(F)cc2)n1CC1CCCCCC1` [7-(cycloheptylmethyl)-6-(4-fluorobenzyl)-3-(tetrahydro-2H-pyran-4-yl)-[1,2,4]triazolo[4,3-a]pyrazin-8(7H)-one], for which the results for the IC50 on PDE1A, at PDE1B and at PDE1C were 3 nM, 9 nM and 4 nM, respectively.
The corresponding values for `CCCc1nnc2c(=O)n(Cc3cccc(F)c3)c(Br)cn12` [6-bromo-7-(3-fluorobenzyl)-3-propyl-[1,2,4]triazolo[4,3-a]pyrazin-8(7H)-one] are 63 nM, 99 nM and 20 nM.
Regarding `O=c1c2nnc(C3CCOCC3)n2cc(Cc2ccccc2)n1CC1CCCCCC1` [6-benzyl-7-(cycloheptylmethyl)-3-(tetrahydro-2H-pyran-4-yl)-[1,2,4]triazolo[4,3-a]pyrazin-8(7H)-one], the half-inhibitory concentration (IC50) at PDE1A was 1 nM; on PDE1B it was 4 nM; on PDE1C, 2 nM.
The corresponding values for `O=c1c2nnc(C3CCCC3)n2ccn1Cc1cccc(F)c1` [3-Cyclopentyl-7-(3-fluorobenzyl)-[1,2,4]triazolo[4,3-a]pyrazin-8(7H)-one] are 420 nM, 290 nM and 800 nM.

Values taken from patent publication US10150771B2, “Triazolopyrazinones as PDE1 inhibitors” (H. Lundbeck A/S, priority 2014, dated 2018).
